Results taken from article PMC8634379, “From the Design to the In Vivo Evaluation of Benzohomoadamantane-Derived Soluble Epoxide Hydrolase Inhibitors for the Treatment of Acute Pancreatitis” (Journal of Medicinal Chemistry, 2021).

How the values were obtained:
[1] = Microsomal stability; format: in vitro ADME, human; conditions: after 60 min incubation, NADP, 37 °C
Protocol: (§1) The human, rat, and mice recombinant microsomes employed were purchased from Tebu–Xenotech. […] Samples (75 μL) were taken from each well at 0, 10, 20, 40, and 60 min and transferred to a plate containing 4 °C 75 μL of acetonitrile and 30 μL of 0.5% formic acid in water were added for improving the chromatographic conditions. The plate was centrifuged ([…], 30 min) and supernatants were taken and analyzed by an ultraperformance liquid chromatograph–tandem mass spectrometer (Xevo-TQD, Waters) by employing a BEH C18 column and an isocratic gradient of 0.1% formic acid in water: 0.1% formic acid acetonitrile (60:40). The metabolic stability of the compounds was calculated from the logarithm of the remaining compounds at each of the time points studied.

[2] = Microsomal stability; format: in vitro ADME, mice; conditions: after 60 min incubation, NADP, 37 °C
Protocol: as §1

[3] = molecular target: T1, human sEH (hsEH) (Homo sapiens, UniProt P34913); experiment: sEH inhibition, fluorescent-based assay (CMNPC substrate); format: biochemical; conditions: for fold difference (decrease) in hsEH potency: 17 vs 16 (oxygen for methylene), 18 vs 17 (hydrogen for methyl)
T1 sequence (P34913 1-555): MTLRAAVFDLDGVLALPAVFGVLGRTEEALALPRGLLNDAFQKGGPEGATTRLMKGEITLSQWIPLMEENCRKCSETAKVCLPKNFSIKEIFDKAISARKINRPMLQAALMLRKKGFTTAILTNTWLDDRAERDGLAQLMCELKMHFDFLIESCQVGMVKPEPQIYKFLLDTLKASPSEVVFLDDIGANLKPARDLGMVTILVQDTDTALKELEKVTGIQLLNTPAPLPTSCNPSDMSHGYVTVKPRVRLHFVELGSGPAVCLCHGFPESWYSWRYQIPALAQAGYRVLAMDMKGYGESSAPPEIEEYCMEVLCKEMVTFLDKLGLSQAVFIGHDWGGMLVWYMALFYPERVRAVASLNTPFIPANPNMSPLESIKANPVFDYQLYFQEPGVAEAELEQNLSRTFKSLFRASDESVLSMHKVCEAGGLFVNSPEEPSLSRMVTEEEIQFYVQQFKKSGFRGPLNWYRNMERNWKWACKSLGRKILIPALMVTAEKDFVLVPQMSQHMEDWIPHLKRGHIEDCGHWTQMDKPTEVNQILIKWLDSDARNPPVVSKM
Protocol: The IC50 values reported herein were determined using a fluorescent-based assay (CMNPC as substrate).[16] The fluorescent assay was used with purified recombinant human, mouse, or rat sEH proteins. The enzymes were incubated at 30 °C with the inhibitors ([I]final = 0.4–100,000 nM) for 5 min in 100 mM sodium phosphate buffer (200 μL, pH 7.4) containing 0.1 mg/mL of BSA and 1% of DMSO. The substrate (CMNPC) was then added ([S]final = 5 μM). […] Results were obtained by regression analysis from a linear region of the curve.

[4] = Microsomal stability; conditions: after 60 min incubation, NADP, 37 °C
Protocol: as §1

[5] = purified recombinant enzyme, average of three replicates

Compound	microsomal stability, percentage of remaining compound (human) [1] [%]	microsomal stability, percentage of remaining compound (mice) [2] [%]	IC50 [3, 5] [nM]	fold difference (decrease) in hsEH potency [3] [fold]	microsomal stability, percentage of remaining compound (rat) [4]	IC50 ([3]; value given in the text) [nM]
CC12CC3CC(NC(=O)N[C@H]4CC[C@H](Oc5ccc(C(=O)O)cc5)CC4)(CC(C1)c1ccccc13)O2 [Compound 21, 4-[((1r,4r)-4-(3-(5-Methyl-1,5,6,7-tetrahydro-1,5:3,7-Dimethanobenzo[e]oxonin-3(2H)-yl)ureido)cyclohexyl)oxy]benzoic Acid]	90	83	28	–	–	–
CC(=O)N1CCC(NC(=O)NC23CC4CC(C)(CC(C2)c2ccccc24)C3)CC1 [Compound 16, 1-(1-Acetylpiperidin-4-yl)-3-(9-methyl-5,6,8,9,10,11-hexahydro-7H-5,9:7,11-dimethanobenzo[9]annulen-7-yl)urea]	–	–	–	–	less than 1%	–
Cc1ccc(OC(=O)NC23CC4CC(C)(CC(C2)c2ccccc24)C3)cc1 [Compound 11, p-Tolyl (9-Methyl-5,6,8,9,10,11-hexahydro-7H-5,9:7,11-dimethanobenzo[9]annulen-7-yl)carbamate]	–	–	> 10000	–	–	12700

Further lines, with some results ahead:

microsomal stability, percentage of remaining compound (human) [1] [%]	microsomal stability, percentage of remaining compound (mice) [2] [%]	IC50 [3, 5] [nM]	fold difference (decrease) in hsEH potency [3] [fold]	Compound	microsomal stability, percentage of remaining compound (rat) [4]	IC50 ([3]; value given in the text) [nM]
7	0.2	1	–	CC12CC3CC(NC(=O)Nc4ccc(F)c(F)c4F)(CC(C1)c1ccccc13)C2 [Compound 13, 1-(9-Methyl-5,6,8,9,10,11-hexahydro-7H-5,9:7,11-dimethanobenzo[9]annulen-7-yl)-3-(2,3,4-trifluorophenyl)urea]	–	–
–	–	941	300	CC(=O)N1CCC(NC(=O)NC23CC4CC(C)(CC(C2)c2ccccc24)O3)CC1 [Compound 17, 1-(1-Acetylpiperidin-4-yl)-3-(5-methyl-1,5,6,7-tetrahydro-1,5:3,7-dimethanobenzo[e]oxonin-3(2H)-yl)urea]	–	–
77	23	20	–	CC12CC3CC(NC(=O)Nc4ccc(F)c(F)c4F)(CC(C1)c1ccccc13)O2 [Compound 14, 1-(5-Methyl-1,5,6,7-hexahydro-1,5:3,7-dimethanobenzo[e]oxonin-3(2H)-yl)-3-(2,3,4-trifluorophenyl)urea]	33%	–
–	–	138	–	CC12CC3CC(NC(=S)Nc4ccc(C(F)(F)F)cc4)(CC(C1)c1ccccc13)C2 [Compound 9, 1-(9-Methyl-5,6,8,9,10,11-hexahydro-7H-5,9:7,11-dimethanobenzo[9]annulen-7-yl)-3-(4-(trifluoromethyl)phenyl)thiourea]	–	–
–	–	> 10000	> 10	CC(=O)N1CCC(NC(=O)NC23CC4CC(CC(C2)c2ccccc24)O3)CC1 [Compound 18, 1-(1-Acetylpiperidin-4-yl)-3-(1,5,6,7-tetrahydro-1,5:3,7-dimethanobenzo[e]oxonin-3(2H)-yl)urea]	–	–
